Test results from patent publication US12527886B2, “Radiopharmaceuticals and composition for thrombus imaging” (THE ASAN FOUNDATION, priority 2020, dated 2026).

Assay: Stability of Tc-99m labeled compound, labeling purity by HPLC
Type: physicochemical
Conditions: 99mTc-labeled, cysteine and VB1, until 4 hours (Table 11)
Method: 2 mL of Tc-99m was added dropwise to a lyophilized vial including 0.1 mg of GP-104, 15 μg of SnCl2, and 10 μg of cysteine, the vial was allowed to stand at room temperature for 10 minutes, and the reaction was terminated by adjusting pH to 7 using a NaOH solution. Labeling purity was confirmed to be 93.21% by HPLC (analysis conditions: Luna C18 250×4.6 mm, phosphate buffer:acetonitrile (100:0, 0 to 5 minutes; 80:20, 5 to 10 minutes; 80:20, 17 minutes; 100:0, 17.1 minutes). 100:0. 20 min), 1.0 mL/min, UV=280 nm).
In order to confirm the effect of cysteine addition after the reaction, the following experiment was performed: 0.1 mg of GP-104 was dissolved in water for injection, the pH was adjusted to about 3.5 when 10 μL of SnCl2 (1.5 mg/mL) and 2 mL of Tc-99m were added thereto, and the resulting mixture was allowed to stand at room temperature for 10 minutes. The reaction was terminated by adjusting the pH to 7 using a NaOH solution and 10 μL of cysteine (1.0 mg/mL). Labeling purity was confirmed to be 91.4% using HPLC in the same manner as in Example 2-7.
After 0.1 mg of GP-104 was dissolved in water for injection, pH was adjusted to about 3.5 and the resulting solution was allowed to stand at room temperature for 10 minutes when 10 μL of SnCl2 (1.5 mg/mL), 10 μL of cysteine (1.0 mg/mL) and 2 mL of Tc-99m were added thereto, and the reaction was terminated by adjusting the pH to 7 using a NaOH solution. Labeling purity was confirmed to be 94.84% using HPLC in the same manner as in Example 2-7.
HCl and NaOH was additionally added dropwise to the solution of Example 2-8 to perform a stability evaluation by adjusting the final pH of the solution to acidic (pH 5.5) and basic (pH 8.5) conditions, and labeling purity was confirmed using HPLC in the same manner as in Example 2-7.
HCl and NaOH was additionally added dropwise to the solution of Example 2-9 to perform a stability evaluation by adjusting the final pH of the solution to acidic (pH 5.5) and basic (pH 8.5) conditions, and labeling purity was confirmed using HPLC in the same manner as in Example 2-7.
HCl and NaOH was additionally added dropwise to the solution of Example 2-10 to perform a stability evaluation by adjusting the final pH of the solution to acidic (pH 5.5) and basic (pH 8.5) conditions, and labeling purity was confirmed using HPLC in the same manner as in Example 2-7.
0.1 mg of GP-105 was dissolved in water for injection, the pH was adjusted to about 3.5 when 10 μL of SnCl2 (1.5 mg/mL) and 2 mL of Tc-99m were added thereto, and the resulting mixture was allowed to stand at room temperature for 10 minutes. The reaction was terminated by adjusting the pH to 7 using a NaOH solution and 10 μL of cysteine (1.0 mg/mL). Labeling purity was confirmed to be 98.1% using HPLC in the same manner as in Example 2-7.
HCl and NaOH was additionally added dropwise to the solution of Example 2-12 to perform a stability evaluation by adjusting the final pH of the solution to acidic (pH 5.5) and basic (pH 8.5) conditions, and labeling purity was confirmed using HPLC in the same manner as in Example 2-7.
HCl and NaOH was additionally added dropwise to the solution of Example 2-13 to perform a stability evaluation by adjusting the final pH of the solution to acidic (pH 5.5) and basic (pH 8.5) conditions, and labeling purity was confirmed using HPLC in the same manner as in Example 2-7.
HCl and NaOH was additionally added dropwise to the solution of Example 2-14 to perform a stability evaluation by adjusting the final pH of the solution to acidic (pH 5.5) and basic (pH 8.5) conditions, and labeling purity was confirmed using HPLC in the same manner as in Example 2-7.

## O=C(O)C[C@H](NC(=O)[C@@H]1CCCN(C(=O)CCC2CCNCC2)C1)c1cncc(OCCNC(=O)CN(CC(=O)O)CC(=O)O)c1 [GP-105, 2,2′-((2-((2-((5-((S)-2-carboxy-1-((R)-1-(3-(piperidin-4-yl)propanoyl)piperidine-3-carboxamido)ethyl)pyridin-3-yl)oxy)ethyl)amino)-2-oxoethyl)azanediyl)diacetic acid]
Acidic conditions
  radiochemical purity: ≥ 98%
Basic conditions
  radiochemical purity: ≥ 90%
pH of 7
  radiochemical purity: ≥ 94%
